Patent US9617246B2, “Thioether-piperidinyl orexin receptor antagonists” (MERCK SHARP & DOHME CORP., priority 2013, dated 2017)

Experiments:
hOX1R = hOX1R (Homo sapiens, UniProt O43613); assay: FLIPR Ca2+ Flux Assay, orexin-1 receptor; type: cell-based; conditions: CHO cells, agonist 70 pM Ala-6,12 human orexin-A
human orexin-2 receptor = human orexin-2 receptor (Homo sapiens (Human), UniProt O43614); assay: FLIPR Ca2+ Flux Assay, orexin-2 receptor; type: cell-based; conditions: CHO cells, agonist 70 pM Ala-6,12 human orexin-A; read-out: hOX2R FLIPR IC50
Method: The utility of the compounds in accordance with the present invention as orexin receptor OX1R and/or OX2R antagonists may be readily determined without undue experimentation by methodology well known in the art, including the “FLIPR Ca^2+ Flux Assay” (Okumura et al., Biochem. Biophys. Res. Comm. 280:976-981, 2001). In a typical experiment the OX1 and OX2 receptor antagonistic activity of the compounds of the present invention was determined in accordance with the following experimental method. For intracellular calcium measurements, Chinese hamster ovary (CHO) cells expressing the rat orexin-1 receptor or the human orexin-2 receptor, are grown in Iscove's modified DMEM containing 2 mM L-glutamine, […], 1% hypoxanthine-thymidine supplement, 100 U/ml penicillin, 100 μg/ml streptomycin and 10% heat-inactivated fetal calf serum (FCS). The cells are seeded at 20,000 cells/well into Becton-Dickinson black 384-well clear bottom sterile plates coated with poly-D-lysine. All reagents were from GIBCO-Invitrogen Corp. The seeded plates are incubated overnight at 37° C. and 5% CO2. Ala-6,12 human orexin-A as the agonist is prepared as a 1 mM stock solution in 1% bovine serum albumin (BSA) and diluted in assay buffer (HBSS containing 20 mM HEPES, 0.1% BSA and 2.5 mM probenecid, pH7.4) for use in the assay at a final concentration of 70 pM. Test compounds are prepared as 10 mM stock solution in DMSO, then diluted in 384-well plates, first in DMSO, then assay buffer. On the day of the assay, cells are washed 3 times with 100 μl assay buffer and then incubated for 60 min (37° C., 5% CO2) in 60 μl assay buffer containing 1 μM Fluo-4AM ester, 0.02% pluronic acid, and 1% BSA. The dye loading solution is then aspirated and cells are washed 3 times with 100 μl assay buffer. 30 μl of that same buffer is left in each well. Within the Fluorescent Imaging Plate Reader (FLIPR, Molecular Devices), test compounds are added to the plate in a volume of 25 μl, incubated for 5 min and finally 25 μl of agonist is added. Fluorescence is measured for each well at 1 second intervals for 5 minutes and the height of each fluorescence peak is compared to the height of the fluorescence peak induced by 70 pM Ala-6,12 orexin-A with buffer in place of antagonist. For each antagonist, IC50 value (the concentration of compound needed to inhibit 50% of the agonist response) is determined. Alternatively, compound potency can be assessed by a radioligand binding assay (described in Bergman et. al. Bioorg. Med. Chem. Lett. 2008, 18, 1425-1430) in which the inhibition constant (Ki) is determined in membranes prepared from CHO cells expressing either the OX1 or OX2 receptor. The intrinsic orexin receptor antagonist activity of a compound which may be used in the present invention may be determined by these assays.

Chain of human orexin-2 receptor (O43614 whole entry): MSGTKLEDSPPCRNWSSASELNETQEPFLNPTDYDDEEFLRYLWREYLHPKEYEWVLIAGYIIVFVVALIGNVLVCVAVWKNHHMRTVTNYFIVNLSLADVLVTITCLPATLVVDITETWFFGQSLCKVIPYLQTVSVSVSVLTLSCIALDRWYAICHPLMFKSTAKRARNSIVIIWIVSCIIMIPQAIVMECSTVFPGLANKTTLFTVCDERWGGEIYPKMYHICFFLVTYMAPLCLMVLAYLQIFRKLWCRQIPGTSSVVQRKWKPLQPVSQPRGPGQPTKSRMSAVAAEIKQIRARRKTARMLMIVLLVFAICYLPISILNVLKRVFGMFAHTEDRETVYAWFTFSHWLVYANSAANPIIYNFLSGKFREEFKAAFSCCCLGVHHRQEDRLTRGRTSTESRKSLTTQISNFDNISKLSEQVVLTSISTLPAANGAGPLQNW

C[C@@H]1CC[C@@H](Sc2cc(C#N)ccn2)CN1C(=O)c1ccccc1-c1cnn(C)c1 [Example 31, 2-{[(3R,6R)-6-methyl-1-{[2-(1-methyl-1H-pyrazol-4-yl)phenyl]carbonyl}piperidin-3-yl]sulfanyl}pyridine-4-carbonitrile]
IC50 (hOX1R): 3.19 µM
IC50 (human orexin-2 receptor): 30.3 nM

C[C@@H]1CC[C@@H](Sc2cc(C#N)ccn2)CN1C(=O)c1cccnc1-c1ccccc1 [Example 32, 2-({(3R,6R)-6-methyl-1-[(2-phenylpyridin-3-yl)carbonyl]piperidin-3-yl}sulfanyl)pyridine-4-carbonitrile]
IC50 (hOX1R): 10 µM
IC50 (human orexin-2 receptor): 71.9 nM

CC(C)Oc1ccccc1C(=O)N1C[C@H](Sc2cc(C#N)ccn2)CC[C@H]1C [Example 33, 2-{[(3R,6R)-6-methyl-1-{[2-(1-methylethoxy)phenyl]carbonyl}piperidin-3-yl]sulfanyl}pyridine-4-carbonitrile]
IC50 (hOX1R): 6.84 µM
IC50 (human orexin-2 receptor): 29.4 nM

CSc1ccccc1C(=O)N1C[C@H](Sc2cc(C#N)ccn2)CC[C@H]1C [Example 34, 2-{[(3R,6R)-6-methyl-1-{[2-(methylsulfanyl)phenyl]carbonyl}piperidin-3-yl]sulfanyl}pyridine-4-carbonitrile]
IC50 (hOX1R): 8.72 µM
IC50 (human orexin-2 receptor): 75.4 nM

C[C@@H]1CC[C@@H](Sc2cc(C#N)ccn2)CN1C(=O)c1ccccc1C1CCCCO1 (stereo partly drawn) [Example 38, 2-{[(3R,6R)-6-methyl-1-{[2-(tetrahydro-2H-pyran-2-yl)phenyl]carbonyl}piperidin-3-yl]sulfanyl}pyridine-4-carbonitrile]
IC50 (hOX1R): 10 µM
IC50 (human orexin-2 receptor): 36.6 nM

C[C@@H]1CC[C@@H](Sc2cc(C#N)ccn2)CN1C(=O)c1ccccc1N1CCCC1 [Example 39, 2-({(3R,6R)-6-methyl-1-[(2-pyrrolidin-1-ylphenyl)carbonyl]piperidin-3-yl}sulfanyl)pyridine-4-carbonitrile]
IC50 (hOX1R): 10 µM
IC50 (human orexin-2 receptor): 103 nM

C[C@@H]1CC[C@@H](Sc2cc(C#N)ccn2)CN1C(=O)c1ccsc1-c1ncccn1 [Example 40, 2-({(3R,6R)-6-Methyl-1-[(2-pyrimidin-2-ylthiophen-3-yl)carbonyl]piperidin-3-yl}sulfanyl)pyridine-4-carbonitrile]
IC50 (hOX1R): 2.24 µM
IC50 (human orexin-2 receptor): 19 nM

C[C@@H]1CC[C@@H](Sc2cc(C#N)ccn2)CN1C(=O)c1ccccc1-c1ncccn1 [Example 41, 2-({(3R,6R)-6-methyl-1-[(2-pyrimidin-2-ylphenyl)carbonyl]piperidin-3-yl}sulfanyl)pyridine-4-carbonitrile]
IC50 (hOX1R): 1.58 µM
IC50 (human orexin-2 receptor): 18.9 nM

C[C@@H]1CC[C@@H](Sc2cc(C#N)ccn2)CN1C(=O)c1sccc1-c1ncccn1 [Example 42, 2-({(3R,6R)-6-methyl-1-[(3-pyrimidin-2-ylthiophen-2-yl)carbonyl]piperidin-3-yl}sulfanyl)pyridine-4-carbonitrile]
IC50 (hOX1R): 3.56 µM
IC50 (human orexin-2 receptor): 5.3 nM

COc1ccc(C(=O)N2C[C@H](Sc3cc(C#N)ccn3)CC[C@H]2C)c(-c2ncccn2)n1 [Example 43, 2-({(3R,6R)-1-[(6-methoxy-2-pyrimidin-2-ylpyridin-3-yl)carbonyl]-6-methylpiperidin-3-yl}sulfanyl)pyridine-4-carbonitrile]
IC50 (hOX1R): 10 µM
IC50 (human orexin-2 receptor): 864 nM

C[C@@H]1CC[C@@H](Sc2cc(C#N)ccn2)CN1C(=O)c1ccsc1-n1nccn1 [Example 44, 2-{[(3R,6R)-6-Methyl-1-{[2-(2H-1,2,3-triazol-2-yl)thiophen-3-yl]carbonyl}piperidin-3-yl]sulfanyl}pyridine-4-carbonitrile]
IC50 (hOX1R): 3.92 µM
IC50 (human orexin-2 receptor): 18.8 nM

C[C@@H]1CC[C@@H](Sc2ncccc2C(=O)O)CN1C(=O)c1ccccc1-n1nccn1 [Example 48, 2-{[(3R,6R)-6-Methyl-1-{[2-(2H-1,2,3-triazol-2-yl)phenyl]carbonyl}piperidin-3-yl]sulfanyl}pyridine-3-carboxylic acid]
IC50 (hOX1R): 6.54 µM
IC50 (human orexin-2 receptor): 626 nM

COC(=O)c1c(OC)ccnc1S[C@@H]1CC[C@@H](C)N(C(=O)c2ccccc2-n2nccn2)C1 [Example 49, Methyl 4-methoxy-2-{[(3R,6R)-6-methyl-1-{[2-(2H-1,2,3-triazol-2-yl)phenyl]carbonyl}piperidin-3-yl]sulfanyl}pyridine-3-carboxylate]
IC50 (hOX1R): 0.0732 µM
IC50 (human orexin-2 receptor): 11.1 nM
